Results reported in patent publication US20260373138A1, “COMPOUNDS WITH ANTIFUNGAL PROPERTIES” (priority 2023, published 2026).

Test system: A. fumigatus CEA10 reference strain
Test: Fluconazole potentiator screen: MIC by CLSI microbroth dilution with and without fluconazole
Type: cell-based, Aspergillus fumigatus
Settings: for MIC: Aspergillus fumigatus, read-out: MIC (ug/mL) (−) Fluc; for MIC / MIC (ug/mL) (+) Fluc: 18 h; for MIC (ug/mL) (+) Fluc: with 32 μg/ml fluconazole, normoxia, GMM, 37 °C; for potency / potentiation of fluconazole (in words): structure-activity statements, fluconazole potentiator screen

| Structure (SMILES) | MIC | MIC (ug/mL) (+) Fluc | potency / potentiation of fluconazole (in words) | loss in potency compared to MBX-7591 (relative to MBX-7591) |
| --- | --- | --- | --- | --- |
| O=C(c1ccccc1)N1CCC(Cc2ccc(COc3ccncc3)cc2)CC1 [MBX-7704] | > 15 µg/mL | >15 µg/mL |  |  |
| O=C(c1ccc(Cl)cc1)N1CCC(Cc2ccc(COc3ccncc3)cc2)CC1 [MBX-7705] | 1.49 µg/mL | 1.05 µg/mL | low potentiation effect |  |
| O=C(c1ccc(F)cc1)N1CCC(Cc2ccc(COc3ccncc3)cc2)CC1 [MBX-7706] | 1.01 µg/mL | 8.09 µg/mL | antagonistic effect |  |
| Cc1ccc(C(=O)N2CCC(Cc3ccc(COc4ccncc4)cc3)CC2)cc1 [MBX-7707] | 1.18 µg/mL | 0.59 µg/mL | comparable activity to MBX-7591 |  |
| COc1ccc(C(=O)N2CCC(Cc3ccc(COc4ccncc4)cc3)CC2)cc1 [MBX-7728] | 8.3 µg/mL | 8.30 µg/mL |  |  |
| O=C(c1ccccn1)N1CCC(Cc2ccc(COc3ccncc3)cc2)CC1 [MBX-7729] | 15 µg/mL | 15.00 µg/mL | did not result in appreciable increase in potency |  |
| O=C(c1cccnc1)N1CCC(Cc2ccc(COc3ccncc3)cc2)CC1 [MBX-7730] | 15 µg/mL | 7.70 µg/mL | did not result in appreciable increase in potency |  |
| O=C(c1ccncc1)N1CCC(Cc2ccc(COc3ccncc3)cc2)CC1 [MBX-7731] | 7.7 µg/mL | 7.70 µg/mL | did not result in appreciable increase in potency |  |
| O=C(c1ccoc1)N1CCC(Cc2ccc(COc3ccncc3)cc2)CC1 [MBX-7732] | 5.32 µg/mL | 1.88 µg/mL |  | 4 fold |
| O=C(c1ccccc1F)N1CCC(Cc2ccc(COc3ccncc3)cc2)CC1 [MBX-7769] | 11.4 µg/mL | 8.09 µg/mL |  |  |
| O=C(c1cccc(F)c1)N1CCC(Cc2ccc(COc3ccncc3)cc2)CC1 [MBX-7770] | 8.09 µg/mL | 8.09 µg/mL |  |  |
| COc1cccc(C(=O)N2CCC(Cc3ccc(COc4ccncc4)cc3)CC2)c1 [MBX-7771] | 11.8 µg/mL | 16.70 µg/mL |  |  |
| O=C(c1ccc2c(c1)OCCO2)N1CCC(Cc2ccc(COc3ccncc3)cc2)CC1 [MBX-7772] | 12.6 µg/mL | 12.60 µg/mL |  |  |
| Cn1ccc(C(=O)N2CCC(Cc3ccc(COc4ccncc4)cc3)CC2)c1 [MBX-7773] | 7.79 µg/mL | 15.60 µg/mL | antagonistic potentiation effect with the fluconazole |  |
| O=C(c1cccc(O)c1)N1CCC(Cc2ccc(COc3ccncc3)cc2)CC1 [MBX-7801] | > 16 µg/mL | >16 µg/mL |  |  |
| O=C(c1ccc(O)cc1)N1CCC(Cc2ccc(COc3ccncc3)cc2)CC1 [MBX-7802] | > 16 µg/mL | >16 µg/mL |  |  |
| O=C(c1cccc(F)c1O)N1CCC(Cc2ccc(COc3ccncc3)cc2)CC1 [MBX-7803] | > 16 µg/mL | >16 µg/mL |  |  |
| O=C(c1c[nH]cn1)N1CCC(Cc2ccc(COc3ccncc3)cc2)CC1 [MBX-7804] | > 15 µg/mL | >15 µg/mL | not tolerated |  |
| O=C(Nc1ccsc1)N1CCC(Cc2ccc(COc3ccncc3)cc2)CC1 [MBX-7805] | > 16 µg/mL | >16 µg/mL |  |  |
| c1cc(OCc2ccc(CC3CCN(Cc4ccsc4)CC3)cc2)ccn1 [MBX-7806] | > 15 µg/mL | >15 µg/mL |  |  |

| Structure (SMILES) | MIC | MIC (ug/mL) (+) Fluc | potency / potentiation of fluconazole (in words) | loss in potency compared to MBX-7591 (relative to MBX-7591) |
| --- | --- | --- | --- | --- |
| CC(c1ccsc1)N1CCC(Cc2ccc(COc3ccncc3)cc2)CC1 (centres unmarked) [MBX-7821] | > 15 µg/mL | >15 µg/mL |  |  |
| O=S(=O)(c1ccsc1)N1CCC(Cc2ccc(COc3ccncc3)cc2)CC1 [MBX-7822] | > 6 µg/mL | 1.07 µg/mL | the only linker reasonably tolerated, apart from the amide |  |
| O=S(=O)(c1ccccc1)N1CCC2(CC1)CC(CCOc1ccncc1)CCO2 (centres unmarked) [MBX-7868] | 8.33 µg/mL | 2.08 µg/mL |  |  |
| O=S(=O)(c1ccccc1F)N1CCC2(CC1)CC(CCOc1ccncc1)CCO2 (centres unmarked) [MBX-7869] | > 17 µg/mL | 3.07 µg/mL |  |  |
| Cc1cccc(S(=O)(=O)N2CCC3(CC2)CC(CCOc2ccncc2)CCO3)c1 (centres unmarked) [MBX-7870] | > 17 µg/mL | 6.09 µg/mL |  |  |
| O=S(=O)(c1ccc(F)cc1)N1CCC2(CC1)CC(CCOc1ccncc1)CCO2 (centres unmarked) [MBX-7871] | 8.69 µg/mL | 1.09 µg/mL |  |  |
| O=S(=O)(c1cccc(Cl)c1)N1CCC2(CC1)CC(CCOc1ccncc1)CCO2 (centres unmarked) [MBX-7872] | > 18 µg/mL | 6.38 µg/mL |  |  |
| O=S(=O)(c1ccccn1)N1CCC2(CC1)CC(CCOc1ccncc1)CCO2 (centres unmarked) [MBX-7873] | > 16 µg/mL | >16 µg/mL |  |  |
| O=S(=O)(c1cccnc1)N1CCC2(CC1)CC(CCOc1ccncc1)CCO2 (centres unmarked) [MBX-7874] | > 16 µg/mL | >16 µg/mL |  |  |
| O=S(=O)(c1ccoc1)N1CCC2(CC1)CC(CCOc1ccncc1)CCO2 (centres unmarked) [MBX-7875] | > 16 µg/mL | 8.00 µg/mL |  |  |
| O=S(=O)(c1ccsc1)N1CCC2(CC1)CC(CCOc1ccncc1)CCO2 (centres unmarked) [MBX-7876] | > 12 µg/mL | 2.99 µg/mL |  |  |
| O=S(=O)(c1ccc(Cl)cc1)N1CCC2(CC1)CC(CCOc1ccncc1)CCO2 (centres unmarked) [MBX-7877] | 3.19 µg/mL | 0.80 µg/mL |  |  |
| N#Cc1cccc(S(=O)(=O)N2CCC3(CC2)CC(CCOc2ccncc2)CCO3)c1 (centres unmarked) [MBX-7910] | > 88 µg/mL | 22.00 µg/mL |  |  |
| O=S(=O)(C1CC1)N1CCC2(CC1)CC(CCOc1ccncc1)CCO2 (centres unmarked) [MBX-7911] | 76.1 µg/mL | 38.10 µg/mL | complete loss of activity |  |
| O=S(=O)(c1ccc(Cl)s1)N1CCC2(CC1)CC(CCOc1ccncc1)CCO2 (centres unmarked) [MBX-7912] | 0.36 µg/mL | 0.18 µg/mL | the most potent |  |
| O=S(=O)(c1ccc(C(F)(F)F)nc1)N1CCC2(CC1)CC(CCOc1ccncc1)CCO2 (centres unmarked) [MBX-7913] | 2.41 µg/mL | 0.96 µg/mL | the most potent |  |
| Cn1nccc1S(=O)(=O)N1CCC2(CC1)CC(CCOc1ccncc1)CCO2 (centres unmarked) [MBX-7914] | 8.34 µg/mL | 3.31 µg/mL |  |  |
| O=S(=O)(C1CCC1)N1CCC2(CC1)CC(CCOc1ccncc1)CCO2 (centres unmarked) [MBX-7915] | 39.5 µg/mL | 49.70 µg/mL | complete loss of activity |  |
| O=S(=O)(N1CCOCC1)N1CCC2(CC1)CC(CCOc1ccncc1)CCO2 (centres unmarked) [MBX-7950] | 26.8 µg/mL | 13.40 µg/mL | complete loss of activity |  |
| CN1CCN(S(=O)(=O)N2CCC3(CC2)CC(CCOc2ccncc2)CCO3)CC1 (centres unmarked) [MBX-7951] | > 87 µg/mL | >87 µg/mL | complete loss of activity |  |

| Structure (SMILES) | MIC | MIC (ug/mL) (+) Fluc | potency / potentiation of fluconazole (in words) | loss in potency compared to MBX-7591 (relative to MBX-7591) |
| --- | --- | --- | --- | --- |
| COc1cccc(S(=O)(=O)N2CCC3(CC2)CC(CCOc2ccncc2)CCO3)c1 (centres unmarked) [MBX-7952] | 11.2 µg/mL | 2.79 µg/mL |  |  |
| COc1ccc(S(=O)(=O)N2CCC3(CC2)CC(CCOc2ccncc2)CCO3)cc1 (centres unmarked) [MBX-7953] | 5.58 µg/mL | 1.11 µg/mL |  |  |
| CC(c1cccs1)N1CCC2(CC1)CC(CCOc1ccncc1)CCO2 (centres unmarked) [MBX-7954] | > 77 µg/mL | >77 µg/mL |  |  |
| c1csc(CN2CCC3(CC2)CC(CCOc2ccncc2)CCO3)c1 (centres unmarked) [MBX-7955] | > 74 µg/mL | >74 µg/mL |  |  |
| O=S(=O)(C1COC1)N1CCC2(CC1)CC(CCOc1ccncc1)CCO2 (centres unmarked) [MBX-7956] | > 79 µg/mL | >79 µg/mL | complete loss of activity |  |
| COc1c(F)cccc1S(=O)(=O)N1CCC2(CC1)CC(CCOc1ccncc1)CCO2 (centres unmarked) [MBX-7958] | > 92 µg/mL | >92 µg/mL |  |  |
| O=S(=O)(c1cncs1)N1CCC2(CC1)CC(CCOc1ccncc1)CCO2 (centres unmarked) [MBX-7959] | 21.2 µg/mL | 4.20 µg/mL |  |  |
| O=S(=O)(c1cscn1)N1CCC2(CC1)CC(CCOc1ccncc1)CCO2 (centres unmarked) [MBX-7960] | 42 µg/mL | 10.60 µg/mL |  |  |
| COc1ccccc1S(=O)(=O)N1CCC2(CC1)CC(CCOc1ccncc1)CCO2 (centres unmarked) [MBX-7961] | > 89 µg/mL | >89 µg/mL |  |  |
| O=C(O)c1cccc(S(=O)(=O)N2CCC3(CC2)CC(CCOc2ccncc2)CCO3)c1 (centres unmarked) [MBX-7962] | > 92 µg/mL | >92 µg/mL |  |  |
| O=C(c1ccsc1)N1CCC(Cc2ccc(C#Cc3ccncc3)cc2)CC1 [MBX-7963] | > 77 µg/mL | >77 µg/mL |  |  |
| O=C(c1ccsc1)N1CCC(Cc2ccc(-c3ccncc3)cc2)CC1 [MBX-7964] | 2.27 µg/mL | 1.13 µg/mL | maintained potency |  |
| O=C(c1ccsc1)N1CCC(Cc2ccc(OCc3ccncc3)cc2)CC1 [MBX-8024] | 19.6 µg/mL | 19.60 µg/mL | not optimal for potentiation of fluconazole |  |
| O=C(c1ccsc1)N1CCC(Cc2ccc(Oc3ccncc3)cc2)CC1 [MBX-8025] | > 37 µg/mL | >37 µg/mL | not optimal for potentiation of fluconazole |  |
| O=C(c1ccsc1)N1CCC(Cc2ccc(CCc3ccncc3)cc2)CC1 [MBX-8026] | 2.4 µg/mL | 0.80 µg/mL | maintained potency |  |
| N#Cc1ccc(OCc2ccc(CC3CCN(C(=O)c4ccsc4)CC3)cc2)cc1 [MBX-8027] | > 83 µg/mL | >83 µg/mL |  |  |
| O=C(c1ccsc1)N1CCC(Cc2ccc(CCOc3ccncc3)cc2)CC1 [MBX-8028] | 0.4 µg/mL | 0.60 µg/mL |  |  |
| O=C(c1ccsc1)N1CCC(Cc2cccc(COc3ccncc3)c2)CC1 [MBX-8029] | 27 µg/mL | 19.00 µg/mL |  |  |
